In one data set the target is T1, P-selectin (Homo sapiens, UniProt P16109).
T1 sequence (P16109 42-830): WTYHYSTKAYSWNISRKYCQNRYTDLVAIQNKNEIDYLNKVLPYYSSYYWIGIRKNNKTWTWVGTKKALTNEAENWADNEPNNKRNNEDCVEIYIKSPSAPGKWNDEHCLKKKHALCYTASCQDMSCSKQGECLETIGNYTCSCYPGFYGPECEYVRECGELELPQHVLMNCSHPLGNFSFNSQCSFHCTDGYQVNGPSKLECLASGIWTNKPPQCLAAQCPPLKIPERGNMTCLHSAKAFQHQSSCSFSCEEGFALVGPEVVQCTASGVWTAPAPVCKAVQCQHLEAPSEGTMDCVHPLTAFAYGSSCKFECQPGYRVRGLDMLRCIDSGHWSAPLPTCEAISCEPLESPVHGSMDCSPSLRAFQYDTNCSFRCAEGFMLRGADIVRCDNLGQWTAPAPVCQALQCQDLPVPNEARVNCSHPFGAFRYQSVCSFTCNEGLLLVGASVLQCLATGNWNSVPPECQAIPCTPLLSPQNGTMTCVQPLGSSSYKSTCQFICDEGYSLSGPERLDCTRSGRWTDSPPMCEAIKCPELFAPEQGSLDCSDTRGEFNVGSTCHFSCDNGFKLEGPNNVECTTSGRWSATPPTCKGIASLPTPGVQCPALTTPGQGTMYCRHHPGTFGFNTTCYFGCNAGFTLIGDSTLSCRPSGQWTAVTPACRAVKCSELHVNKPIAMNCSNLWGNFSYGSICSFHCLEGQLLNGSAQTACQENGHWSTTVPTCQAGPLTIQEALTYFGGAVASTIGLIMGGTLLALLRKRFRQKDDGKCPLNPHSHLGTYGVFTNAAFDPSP
The following applies: relative to sugar chain (3); cited from earlier work.

A further data set addresses T2, α-fucosidase (Bos taurus, UniProt Q2KIM0).
T2 construct: purchased Wako Pure Chemical Industries, Ltd
T2 sequence (Q2KIM0 23-468): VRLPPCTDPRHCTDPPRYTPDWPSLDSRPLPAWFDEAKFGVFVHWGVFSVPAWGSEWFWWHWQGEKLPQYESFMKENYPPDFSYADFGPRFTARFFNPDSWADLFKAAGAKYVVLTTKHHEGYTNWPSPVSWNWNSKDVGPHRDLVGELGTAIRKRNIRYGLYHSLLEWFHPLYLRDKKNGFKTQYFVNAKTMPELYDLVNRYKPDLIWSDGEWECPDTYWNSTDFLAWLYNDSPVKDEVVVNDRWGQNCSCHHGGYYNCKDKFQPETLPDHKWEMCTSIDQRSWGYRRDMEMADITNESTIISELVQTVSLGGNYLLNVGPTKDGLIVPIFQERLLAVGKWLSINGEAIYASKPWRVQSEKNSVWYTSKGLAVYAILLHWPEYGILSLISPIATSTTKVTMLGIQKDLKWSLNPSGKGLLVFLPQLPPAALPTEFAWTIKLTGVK
Briefly: Metabolic stability test: substrate decomposition reaction by α-fucosidase (remaining substrate by TLC). It counts as in vitro ADME. The method, then: The TLC plate was developed until the reaction solution front moved 2 cm (developing solvent; n-butanol:acetic acid:water=8:5:4). After immersion in phosphomolybdic acid.phosphoric acid.sulfonic acid mixed aqueous solution, the plate was heated to develop colors and the amount of the remaining substrate was measured.

The subject of data set [1] is acute pulmonary inflammation induced using a cobra venom factor. The following applies: rats, Mulligan et al., Nature 364, 149 (1993); cited from earlier work.

Take “1-deoxy sialyl Lewis X [sugar chain (4)]”: at P-selectin, the “inhibitory activity against P-selectin, times as potent as sugar chain (3)” value was “about 20 times”.

On to `CCCCCCCCCCCCCC=CC(O)C(COC1OC(CO)C(OC2OC(CO)C(O)C(OC3OC(CF)C(OC4OC(CO)C(O)C(OC5(C(=O)O)CC(O)C(NC(C)=O)C(C(O)C(O)CO)O5)C4O)C(OC4OC(C)C(O)C(O)C4O)C3NC(C)=O)C2O)C(O)C1O)NC(=O)CCCCCCCCCCCCCCCCC` [Compound 24, O-(5-Acetamide-3,5-dideoxy-D-glycero-α-D-galacto-2-nonulopyranosylonic acid)-(2→3)-O-β-D-glucopyranosyl-(1→4)-O-[α-L-fucopyranosyl-(1→3)]-O-(2-acetamide-2,6-dideoxy-6-fluoro-β-D-galactopyranosyl)-(1→3)-O-β-D-galactopyranosyl)-(1→4)-β-D-glucopyranosyl-(1→1)(2S, 3R, 4E)-2-octadecaneamide-4-octadecene-1,3-diol], for which, on α-fucosidase (in the presence of α-fucosidase), the “stability against decomposition by α-fucosidase (in words)” value is “more strongly resists the decomposition by α-fucosidase than a natural Ganglioside”. Moreover, at α-fucosidase (α-fucosidase, time 0 min), the “Remaining Syalyl Lewis X (%)” value amounted to 100%.

In the case of “sialyl Lewis X sugar chain [sialyl Lewis X sugar chain (3)]”, the “effect on acute pulmonary inflammation (in words)” value in data set [1] is reported as “ameliorates acute pulmonary inflammation”.

(Values after US6084081A, “Lewis X derivatives” (Daikin Industries, Ltd., priority 1996, dated 2000).)
